What is called IC50 is the concentration that gives 50% inhibition.

T1 sequence (P25103 whole entry): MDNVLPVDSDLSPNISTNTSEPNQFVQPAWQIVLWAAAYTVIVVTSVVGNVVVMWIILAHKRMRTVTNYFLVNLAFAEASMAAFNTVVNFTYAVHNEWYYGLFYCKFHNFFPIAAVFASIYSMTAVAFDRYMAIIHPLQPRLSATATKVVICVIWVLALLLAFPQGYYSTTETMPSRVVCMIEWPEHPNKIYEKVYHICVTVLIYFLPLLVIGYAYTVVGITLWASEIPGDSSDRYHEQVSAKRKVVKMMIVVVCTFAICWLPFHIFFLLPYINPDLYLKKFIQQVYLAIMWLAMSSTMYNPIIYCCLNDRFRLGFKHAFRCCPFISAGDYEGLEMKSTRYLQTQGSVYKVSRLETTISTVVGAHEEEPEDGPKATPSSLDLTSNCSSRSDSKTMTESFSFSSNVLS

The first assay addresses T1, Human NK1 Receptor (Homo sapiens, UniProt P25103).
T1 construct: endogenous in cells; host or cells: Human lymphoma IM9 cells (whole cells)
Description: In Vitro Human NK1 Receptor Binding Assay ([125I]Bolton-Hunter substance P displacement, IM9 cells). As to conditions: Human lymphoma IM9 cells, [125I]Bolton-Hunter substance P (0.05-0.1 nM), 50 min at 21° C.; Table 1; read-out: NK1 binding IC50. The procedure:
They have been evaluated in an NK1-receptor binding assay which is described below.
Human lymphoma IM9 cells were grown in RPMI 1640 culture medium supplemented with 10% fetal calf serum and 2 mM glutamine and maintained under an atmosphere of 5% CO2. Cells were passaged every 3-4 days by reseeding to a concentration of 4-8×10^6/40 ml per 175 cm^2 flask. Cells were harvested for experiments by centrifugation at 1000 g for 3 min. Pelleted cells were washed once by resuspension into assay buffer (50 mM Tris HCl pH 7.4, 3 mM MnCl2, 0.02% BSA, […] bacitracin, […] chymostatin, 2 mM phosphoramidon, […] leupeptin) and repeating the centrifugation step before resuspending at a concentration of 2.5×10^6 cells/mL assay buffer. Cells ([…]) were incubated with [^125I]Bolton-Hunter substance P (0.05-0.1 nM) in the presence and absence of varying concentrations of test compounds for 50 min at 21° C. Non-specific binding (10% of the total binding observed under these conditions) was defined by […] [Sar^9, Met(02)^11] substance P. Reactions were terminated by rapid filtration under vacuum onto GF\C filters presoaked in 0.2% PEI for 1-2 h, using a Brandel cell harvester. Filters were washed with 6×1 ml ice-cold Tris HCl (50 mM, pH 7.4) and radioactivity bound determined using a gamma couter. Results were analyzed using iterative curve fitting procedures in RS1 or Graphpad Inplot.
For the molecule `C[C@H](NC(=O)[C@@H](Cc1c[nH]c2ccccc12)NCc1cc2ccccc2o1)c1ccccc1` (relative stereo) [Example 6, 2-[(Benzofuran-2-ylmethyl)-amino]-3-(1H-indol-3-yl)-N-(1-phenyl-ethyl)-propionamide, [R-(R*,S*)]], the IC50 amounted to 0.7 nM.

Regarding `Cc1cc(CN[C@H](Cc2c[nH]c3ccccc23)C(=O)N[C@@H](C)c2ccccc2)oc1C` (relative stereo) [Example 8, 2-[(4,5-Dimethyl-furan-2-ylmethyl)-amino]-3-(1H-indol-3-yl)-N-(1-phenyl-ethyl)-propionamide, [R-(R*,S*)]], the IC50 amounted to 27 nM.

For the molecule `C[C@H](NC(=O)[C@@H](Cc1c[nH]c2ccccc12)NCc1ccc(Cl)s1)c1ccccc1` (relative stereo) [Example 12, 2-[(5-Chloro-thiophen-2-ylmethyl)-amino]-3-(1H-indol-3-yl)-N-(1-phenyl-ethyl)-propionamide, [R(R*,S*)]], the IC50 came to 14 nM.

Take `C[C@H](NC(=O)[C@@H](Cc1c[nH]c2ccccc12)NCc1cccc(SC(F)(F)F)c1)c1ccccc1` (relative stereo) [Example 13, 3-(1H-Indol-3-yl)-N-(1-phenyl-ethyl)-2-(3-trifluoromethylsulfanyl-benzylamino)-propionamide, [R-(R*,S*)]]: the IC50 came to 35 nM.

In the case of `C[C@H](NC(=O)[C@@H](Cc1c[nH]c2ccccc12)NCc1cccc(C#N)c1)c1ccccc1` (relative stereo) [Example 14, 2-(3-Cyano-benzylamino)-3-(1H-indol-3-yl)-N-(1-phenyl-ethyl)-propionamide, [R-(R*,S*)]], the IC50 was determined as 4.7 nM.

As to `C[C@H](NC(=O)[C@@H](Cc1c[nH]c2ccccc12)NCc1cccc([N+](=O)[O-])c1)c1ccccc1` (relative stereo) [Example 15, 3-(1H-Indol-3-yl)-2-(3-nitro-benzylamino)-N-(1-phenyl-ethyl)-propionamide, [R-(R*,S*)]], the concentration for half-maximal inhibition (IC50) is over 10000 nM.

For `C[C@H](NC(=O)[C@@H](Cc1c[nH]c2ccccc12)NCc1cccc(OC(F)(F)F)c1)c1ccccc1` (relative stereo) [Example 16, 3-(1H-Indol-3-yl)-N-(1-phenyl-ethyl)-2-(3-trifluoromethoxy-benzylamino)-propionamide, [R-(R*,S*)]], the IC50 came to 9.1 nM.

Consider `C[C@H](NC(=O)[C@@H](Cc1c[nH]c2ccccc12)NCc1cccc(O)c1)c1ccccc1` (relative stereo) [Example 17, 2-(3-Hydroxy-benzylamino)-3-(1H-indol-3-yl)-N-(1-phenyl-ethyl)-propionamide, [R-(R*,S*)]], for which the IC50 was 344 nM.

In the case of `C[C@H](NC(=O)[C@@](C)(Cc1c[nH]c2ccccc12)NCc1ccn[nH]1)c1ccccc1` (relative stereo) [Example 21, 3-(1H-Indol-3-yl)-2-methyl-N-(1-phenyl-ethyl)-2-[(2H-pyrazol-3-ylmethyl)-amino]-propionamide, [R-(R*,S*)]], the IC50 worked out at 1810 nM.

The assay is the same for the next values; noted with them: Human lymphoma IM9 cells, [125I]Bolton-Hunter substance P; Table 3, array-synthesis products; read-out: IC50 (nM) hNK1.
As for `O=C(NCc1ccccn1)C(Cc1c[nH]c2ccccc12)NCc1cc2ccccc2o1` (stereo not shown) [Example 192, 2-[(Benzofuran-2-ylmethyl)-amino]-3-(1H-indol-3-yl)-N-pyridin-2-ylmethyl-propionamide], the IC50 came to 1980 nM.

Regarding `O=C(NCCN1CCNCC1)C(Cc1c[nH]c2ccccc12)NCc1cc2ccccc2o1` (stereo not shown) [Example 193, 2-[(Benzofuran-2-ylmethyl)-amino]-3-(1H-indol-3-yl)-N-(2-piperazin-1-yl-ethyl)-propionamide], the IC50 was over 10000 nM.

With `O=C(NC1CCCc2ccccc21)C(Cc1c[nH]c2ccccc12)NCc1cc2ccccc2o1` (stereo not shown) [Example 194, 2-[(Benzofuran-2-ylmethyl)-amino]-3-(1H-indol-3-yl)-N-(1,2,3,4-tetrahydro-naphthalen-1-yl)-propionamide], the IC50 amounted to 703 nM.

In the case of `O=C(NC1CCc2ccccc21)C(Cc1c[nH]c2ccccc12)NCc1cc2ccccc2o1` (stereo not shown) [Example 195, 2-[(Benzofuran-2-ylmethyl)-amino]-N-indan-1-yl-3-(1H-indol-3-yl)-propionamide], the concentration for half-maximal inhibition (IC50) turned out to be 1750 nM.

For `CCC(NC(=O)C(Cc1c[nH]c2ccccc12)NCc1cc2ccccc2o1)c1cccs1` (stereo not shown) [Example 196, 2-[(Benzofuran-2-ylmethyl)-amino]-3-(1H-indol-3-yl)-N-(1-thiophen-2-yl-propyl)-propionamide], the half-maximal inhibitory concentration (IC50) was determined as 92 nM.

With `CC(NC(=O)C(Cc1c[nH]c2ccccc12)NCc1cc2ccccc2o1)c1cccc2ccccc12` (stereo not shown) [Example 197, 2-[(Benzofuran-2-ylmethyl)-amino]-3-(1H-indol-3-yl)-N-(1-naphthalen-1-yl-ethyl)-propionamide], the IC50 is 933 nM.

On to `CN1CCCC1CCNC(=O)C(Cc1c[nH]c2ccccc12)NCc1cc2ccccc2o1` (stereo not shown) [Example 198, 2-[(Benzofuran-2-ylmethyl)-amino]-3-(1H-indol-3-yl)-N-[2-(1-methyl-pyrrolidin-2-yl)-ethyl]-propionamide], for which the IC50 was over 10000 nM.

Staying with this assay, now noted: Table 4; [125I]Bolton-Hunter substance P displacement, human IM9 cells; read-out: IC50 (nM) hNK1.
As for “2-(2,3-Diphenyl-allylamino)-3-(1H-indol-3-yl)-2-methyl-N-(1-phenyl-ethyl)-propionamide [compound 338]”, the IC50 was over 10000 nM.

Regarding “2-(3-Benzo[1,3]dioxol-5-yl-allylamino)-3-(1H-indol-3-yl)-2-methyl-N-(1-phenyl-ethyl)-propionamide [compound 339]”, the IC50 came to 343 nM.

For the molecule “2-(4-Benzyloxy-benzylamino)-3-(1H-indol-3-yl)-2-methyl-N-(1-phenyl-ethyl)-propionamide [compound 341]”, the IC50 is over 10000 nM.

In the case of “2-(4-Chloro-3-sulfamoyl-benzylamino)-3-(1H-indol-3-yl)-2-methyl-N-(1-phenyl-ethyl)-propionamide [compound 336]”, the IC50 came to 4230 nM.

With “2-[3-(4-Benzyloxy-phenyl)-allylamino]-3-(1H-indol-3-yl)-2-methyl-N-(1-phenyl-ethyl)-propionamide [compound 340]”, the IC50 came to 4910 nM.

In the case of “3-(1H-Indol-3-yl)-2-methyl-N-(1-phenyl-ethyl)-2-[4-(2-pyrrolidin-1-yl-ethoxy)-benzylamino]-propionamide [compound 335]”, the IC50 was over 10000 nM.

Take “3-(1H-Indol-3-yl)-2-methyl-N-(1-phenyl-ethyl)-2-[4-(4-phenyl-piperidin-1-yl)-benzylamino]-propionamide [compound 334]”: the IC50 is over 10000 nM.

For “3-(1H-Indol-3-yl)-2-methyl-N-(1-phenyl-ethyl)-2-[(pyridin-4-ylmethyl)-amino]-propionamide [compound 313]”, the IC50 stood at 50 nM.

For the molecule “3-(1H-Indol-3-yl)-2methyl-N-(1-phenyl-ethyl)-2-[(1-phenyl-1H-indol-2-ylmethyl)-amino]-propionamide [compound 333]”, the IC50 was 3610 nM.

In the case of “4-{[2-(1H-Indol-3-yl)-1-methyl-1-(1-phenyl-ethylcarbamoyl)-ethylamino]-methyl}-benzoic acid methyl ester [compound 337]”, the IC50 is 1920 nM.

The assay is the same for the next values; noted with them: Table 5; [125I]Bolton-Hunter substance P displacement, human IM9 cells; read-out: IC50 (nM) hNK1.
On to “2-(2,3-Diphenyl-allylamino)-3-(1H-indol-3-yl)-2-methyl-N-(1-phenyl-ethyl)-propionamide [compound 338]”, for which the IC50 is over 10000 nM.

Staying with this assay, now noted: human NK1 receptor, IM9 cells, [125I]Bolton-Hunter substance P; read-out: IC50 (nM) hNK1.
Turning to “2-[(Benzofuran-2-ylmethyl)-amino]-N-(5-hydroxy-4-oxo-4H-pyran-2-ylmethyl)-3-(1H-indol-3-yl)-2-methyl-propionamide [compound 164]”, the IC50 is over 10000 nM.

The record behind these values is patent US6472418B1, “Non-peptide NK1 receptors antagonists” (Warner-Lambert Company, priority 1998, dated 2002).
